Measured values reported in the kinase profiling compilation of Christmann-Franck et al. (2016).

What was measured:
Experiment in all cases: KINOMEscan competition binding
Conditions in all cases: compound 10.0 µM
[1] = target: ACVR1 (human) (UniProt Q04771)
[2] = target: AKT3 (human) (UniProt Q9Y243)
[3] = target: AXL (human) (UniProt P30530)
[4] = target: BMP2K (human) (UniProt Q9NSY1)
[5] = target: BMPR1B (human) (UniProt O00238)
[6] = target: CAMK2D (human) (UniProt Q13557)
[7] = target: CDK18 (human) (UniProt Q07002)
[8] = target: CSNK1A1 (human) (UniProt P48729)
[9] = target: DCLK3 (human) (UniProt Q9C098)
Chain of DCLK3 (human) (Q9C098 whole entry, looked up): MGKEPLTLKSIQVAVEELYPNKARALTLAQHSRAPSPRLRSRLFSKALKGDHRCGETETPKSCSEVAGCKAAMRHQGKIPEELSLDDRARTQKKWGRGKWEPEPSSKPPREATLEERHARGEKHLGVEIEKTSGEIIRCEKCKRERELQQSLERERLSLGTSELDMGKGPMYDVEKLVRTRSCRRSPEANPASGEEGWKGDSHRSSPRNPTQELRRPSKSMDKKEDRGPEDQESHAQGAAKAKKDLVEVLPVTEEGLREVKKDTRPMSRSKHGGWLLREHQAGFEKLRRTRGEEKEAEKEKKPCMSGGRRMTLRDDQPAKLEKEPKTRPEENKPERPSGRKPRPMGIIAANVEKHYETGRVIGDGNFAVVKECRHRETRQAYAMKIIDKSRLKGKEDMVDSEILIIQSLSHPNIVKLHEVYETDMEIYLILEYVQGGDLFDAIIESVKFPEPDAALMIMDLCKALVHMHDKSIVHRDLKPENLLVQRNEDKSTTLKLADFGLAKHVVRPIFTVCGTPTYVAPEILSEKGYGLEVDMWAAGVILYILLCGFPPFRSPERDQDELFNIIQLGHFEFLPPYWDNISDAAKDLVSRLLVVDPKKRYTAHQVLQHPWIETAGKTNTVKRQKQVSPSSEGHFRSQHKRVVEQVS

[10] = test system: EGFR (human), P00533 [T790M/L858R]
[11] = test system: EIF2AK4 KD2 (human), Q9P2K8 [S808G]
[12] = target: EPHA3 (human) (UniProt P29320)
[13] = target: EPHA7 (human) (UniProt Q15375)
[14] = test system: FLT3 (human), P36888 [D835Y]
[15] = test system: FLT3 (human), P36888 [ITD]
[16] = target: GRK1 (human) (UniProt Q15835)
[17] = target: GSK3B (human) (UniProt P49841)
[18] = target: HIPK1 (human) (UniProt Q86Z02)
[19] = target: IKBKE (human) (UniProt Q14164)
[20] = target: LATS1 (human) (UniProt O95835)
[21] = target: LTK (human) (UniProt P29376)
[22] = target: LYN (human) (UniProt P07948)
[23] = target: MAP3K1 (human) (UniProt Q13233)
[24] = target: MAPK12 (human) (UniProt P53778)
[25] = target: MAPK14 (human) (UniProt Q16539)
[26] = target: MAPK9 (human) (UniProt P45984)
[27] = target: MAPKAPK5 (human) (UniProt Q8IW41)
[28] = test system: MET (human), P08581 [M1250T]
[29] = test system: MET (human), P08581 [Y1235D]
[30] = target: OXSR1 (human) (UniProt O95747)
Chain of OXSR1 (human) (O95747 whole entry, looked up): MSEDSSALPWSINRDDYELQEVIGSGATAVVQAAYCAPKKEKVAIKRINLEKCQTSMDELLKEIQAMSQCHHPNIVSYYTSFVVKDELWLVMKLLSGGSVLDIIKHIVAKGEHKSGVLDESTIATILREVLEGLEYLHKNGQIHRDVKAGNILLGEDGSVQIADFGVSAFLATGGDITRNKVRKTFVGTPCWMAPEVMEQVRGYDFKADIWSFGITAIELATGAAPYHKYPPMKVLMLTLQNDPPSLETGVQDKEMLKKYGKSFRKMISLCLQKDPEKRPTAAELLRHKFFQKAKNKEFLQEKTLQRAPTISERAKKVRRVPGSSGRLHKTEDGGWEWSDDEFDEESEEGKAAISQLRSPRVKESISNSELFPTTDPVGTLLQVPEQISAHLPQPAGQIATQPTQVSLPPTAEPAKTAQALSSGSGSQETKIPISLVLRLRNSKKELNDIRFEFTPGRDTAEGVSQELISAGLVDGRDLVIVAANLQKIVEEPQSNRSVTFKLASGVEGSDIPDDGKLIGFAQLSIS

[31] = target: PAK1 (human) (UniProt Q13153)
Chain of PAK1 (human) (Q13153 whole entry, looked up): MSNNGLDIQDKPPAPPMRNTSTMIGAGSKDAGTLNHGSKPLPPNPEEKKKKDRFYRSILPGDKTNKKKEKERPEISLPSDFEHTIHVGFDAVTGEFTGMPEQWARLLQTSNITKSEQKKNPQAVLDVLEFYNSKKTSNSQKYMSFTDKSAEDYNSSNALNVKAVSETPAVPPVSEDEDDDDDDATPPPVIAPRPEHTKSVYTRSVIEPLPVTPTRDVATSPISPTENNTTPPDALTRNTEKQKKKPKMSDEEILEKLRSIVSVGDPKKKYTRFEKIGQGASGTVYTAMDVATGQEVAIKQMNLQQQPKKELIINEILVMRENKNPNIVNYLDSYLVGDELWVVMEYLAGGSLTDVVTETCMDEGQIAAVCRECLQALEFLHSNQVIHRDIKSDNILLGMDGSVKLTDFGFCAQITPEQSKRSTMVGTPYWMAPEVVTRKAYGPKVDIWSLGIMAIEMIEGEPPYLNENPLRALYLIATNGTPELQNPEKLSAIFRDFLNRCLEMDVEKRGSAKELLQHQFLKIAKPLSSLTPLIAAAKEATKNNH

[32] = target: PRKAA1 (human) (UniProt Q13131)
[33] = target: PRKAA2 (human) (UniProt P54646)
[34] = target: RIPK1 (human) (UniProt Q13546)
[35] = target: RPS6KA5 KD1 (human) (UniProt O75582)
Chain of RPS6KA5 KD1 (human) (O75582 whole entry, looked up): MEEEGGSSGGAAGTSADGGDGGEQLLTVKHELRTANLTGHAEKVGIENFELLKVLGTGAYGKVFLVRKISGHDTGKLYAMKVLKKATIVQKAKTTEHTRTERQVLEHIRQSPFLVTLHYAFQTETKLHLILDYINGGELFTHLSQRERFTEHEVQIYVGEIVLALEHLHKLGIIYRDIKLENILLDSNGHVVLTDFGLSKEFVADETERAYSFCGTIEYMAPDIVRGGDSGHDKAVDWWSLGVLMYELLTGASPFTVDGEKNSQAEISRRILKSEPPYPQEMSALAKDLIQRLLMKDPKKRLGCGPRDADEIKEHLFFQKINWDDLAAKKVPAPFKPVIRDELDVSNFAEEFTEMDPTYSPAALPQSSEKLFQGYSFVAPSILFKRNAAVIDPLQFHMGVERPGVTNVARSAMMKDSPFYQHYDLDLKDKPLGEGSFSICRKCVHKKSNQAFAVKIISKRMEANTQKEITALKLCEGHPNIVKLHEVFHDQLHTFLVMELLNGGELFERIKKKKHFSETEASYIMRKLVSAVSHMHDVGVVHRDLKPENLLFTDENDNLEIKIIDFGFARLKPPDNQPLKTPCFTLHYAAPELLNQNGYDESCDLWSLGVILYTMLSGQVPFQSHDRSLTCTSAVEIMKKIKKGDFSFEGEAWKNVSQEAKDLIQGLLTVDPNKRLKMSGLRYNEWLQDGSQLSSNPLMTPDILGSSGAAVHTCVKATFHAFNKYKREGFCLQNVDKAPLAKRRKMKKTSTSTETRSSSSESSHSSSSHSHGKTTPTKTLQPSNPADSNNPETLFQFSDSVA

[36] = target: SRMS (human) (UniProt Q9H3Y6)
[37] = target: STK36 (human) (UniProt Q9NRP7)
[38] = target: TAOK1 (human) (UniProt Q7L7X3)
[39] = target: TGFBR2 (human) (UniProt P37173)
[40] = target: TLK2 (human) (UniProt Q86UE8)
Chain of TLK2 (human) (Q86UE8 whole entry, looked up): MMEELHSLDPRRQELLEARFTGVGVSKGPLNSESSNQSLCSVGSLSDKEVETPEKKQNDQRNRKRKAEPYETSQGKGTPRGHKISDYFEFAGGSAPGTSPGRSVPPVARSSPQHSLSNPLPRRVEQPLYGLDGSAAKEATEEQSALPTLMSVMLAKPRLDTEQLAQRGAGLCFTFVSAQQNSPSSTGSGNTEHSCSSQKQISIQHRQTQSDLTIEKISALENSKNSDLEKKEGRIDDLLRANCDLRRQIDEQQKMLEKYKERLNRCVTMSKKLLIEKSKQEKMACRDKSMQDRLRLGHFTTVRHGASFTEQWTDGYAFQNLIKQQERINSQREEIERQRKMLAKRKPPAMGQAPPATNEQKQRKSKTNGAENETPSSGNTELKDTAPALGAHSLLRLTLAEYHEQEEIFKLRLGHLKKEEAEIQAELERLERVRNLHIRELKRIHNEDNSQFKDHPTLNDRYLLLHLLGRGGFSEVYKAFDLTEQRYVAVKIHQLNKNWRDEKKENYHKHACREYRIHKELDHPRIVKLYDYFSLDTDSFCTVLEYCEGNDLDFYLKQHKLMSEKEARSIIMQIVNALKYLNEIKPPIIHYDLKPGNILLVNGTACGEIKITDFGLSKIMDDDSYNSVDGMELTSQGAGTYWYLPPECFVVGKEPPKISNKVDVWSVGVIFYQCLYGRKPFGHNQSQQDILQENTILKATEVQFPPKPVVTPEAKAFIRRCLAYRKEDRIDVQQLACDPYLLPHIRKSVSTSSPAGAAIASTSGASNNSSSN

[41] = target: TNIK (human) (UniProt Q9UKE5)
[42] = target: VRK2 (human) (UniProt Q86Y07)

Chain of BMP2K (human) (Q9NSY1 whole entry, looked up): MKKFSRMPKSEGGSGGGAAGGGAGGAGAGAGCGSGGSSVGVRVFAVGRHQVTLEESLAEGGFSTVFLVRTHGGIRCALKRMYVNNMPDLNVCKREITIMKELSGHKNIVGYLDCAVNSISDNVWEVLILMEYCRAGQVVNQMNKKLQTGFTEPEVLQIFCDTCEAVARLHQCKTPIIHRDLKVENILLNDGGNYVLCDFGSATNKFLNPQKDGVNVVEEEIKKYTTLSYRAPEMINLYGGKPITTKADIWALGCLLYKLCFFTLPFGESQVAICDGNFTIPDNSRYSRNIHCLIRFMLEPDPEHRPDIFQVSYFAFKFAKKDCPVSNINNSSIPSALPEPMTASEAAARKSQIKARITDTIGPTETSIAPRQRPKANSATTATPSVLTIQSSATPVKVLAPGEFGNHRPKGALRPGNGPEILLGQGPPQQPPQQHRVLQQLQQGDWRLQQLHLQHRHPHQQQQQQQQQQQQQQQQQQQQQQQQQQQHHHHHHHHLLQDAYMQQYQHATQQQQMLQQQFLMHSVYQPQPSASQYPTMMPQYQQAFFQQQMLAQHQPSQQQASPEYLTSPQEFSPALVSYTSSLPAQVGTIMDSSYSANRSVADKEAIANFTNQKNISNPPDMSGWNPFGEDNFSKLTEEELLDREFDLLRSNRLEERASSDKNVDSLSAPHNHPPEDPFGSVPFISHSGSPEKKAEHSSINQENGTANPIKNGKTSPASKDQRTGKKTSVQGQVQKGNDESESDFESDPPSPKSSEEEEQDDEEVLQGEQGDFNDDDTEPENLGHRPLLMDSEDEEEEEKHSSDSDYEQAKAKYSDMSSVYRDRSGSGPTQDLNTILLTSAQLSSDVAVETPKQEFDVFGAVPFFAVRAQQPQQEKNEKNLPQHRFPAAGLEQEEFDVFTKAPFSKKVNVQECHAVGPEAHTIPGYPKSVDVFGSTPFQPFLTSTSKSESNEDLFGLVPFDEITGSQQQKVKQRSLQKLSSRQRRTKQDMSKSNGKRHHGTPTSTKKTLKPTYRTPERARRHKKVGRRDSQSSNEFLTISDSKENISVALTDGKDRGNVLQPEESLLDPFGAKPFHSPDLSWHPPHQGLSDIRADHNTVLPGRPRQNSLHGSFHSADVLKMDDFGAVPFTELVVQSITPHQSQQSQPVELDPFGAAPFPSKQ
Chain of AKT3 (human) (Q9Y243 whole entry, looked up): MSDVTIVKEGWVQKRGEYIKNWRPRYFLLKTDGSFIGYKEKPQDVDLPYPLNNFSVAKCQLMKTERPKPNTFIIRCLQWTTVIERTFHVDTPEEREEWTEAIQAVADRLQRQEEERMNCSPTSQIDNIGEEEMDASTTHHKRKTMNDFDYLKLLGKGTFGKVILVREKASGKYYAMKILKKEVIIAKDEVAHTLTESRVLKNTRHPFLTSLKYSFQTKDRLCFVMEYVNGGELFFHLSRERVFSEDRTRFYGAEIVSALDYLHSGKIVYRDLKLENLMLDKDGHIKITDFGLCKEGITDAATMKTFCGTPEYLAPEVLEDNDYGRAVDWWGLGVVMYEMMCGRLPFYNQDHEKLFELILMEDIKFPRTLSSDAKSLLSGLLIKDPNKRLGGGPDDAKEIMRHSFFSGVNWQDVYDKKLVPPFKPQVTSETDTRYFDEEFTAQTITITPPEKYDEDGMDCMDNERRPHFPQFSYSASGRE

Question: With `Cc1cc([C@@H](C)Nc2ccccc2C(=O)O)c2nc(N3CCOCC3)cc(=O)n2c1` as the compound, how does the kinase still bound, per cent of control [1] read?
Answer: Its kinase still bound, per cent of control is 100%.

Question: What about the kinase still bound, per cent of control [2] of the same compound?
Answer: The kinase still bound, per cent of control was 80%.

Question: And the kinase still bound, per cent of control [3]?
Answer: Its kinase still bound, per cent of control is 100%.

Question: And the kinase still bound, per cent of control [4]?
Answer: Its kinase still bound, per cent of control is 100%.

Question: What about the kinase still bound, per cent of control [5] of the same compound?
Answer: Its kinase still bound, per cent of control is 89%.

Question: And the kinase still bound, per cent of control [6]?
Answer: Its kinase still bound, per cent of control is 100%.

Question: What about the kinase still bound, per cent of control [7] of the same compound?
Answer: The kinase still bound, per cent of control was 83%.

Question: And the kinase still bound, per cent of control [8]?
Answer: The kinase still bound, per cent of control was 100%.

Question: And the kinase still bound, per cent of control [9]?
Answer: The kinase still bound, per cent of control was 100%.

Question: What about the kinase still bound, per cent of control [10] of the same compound?
Answer: The kinase still bound, per cent of control was 100%.

Question: What about the kinase still bound, per cent of control [11] of the same compound?
Answer: Its kinase still bound, per cent of control is 78%.

Question: And the kinase still bound, per cent of control [12]?
Answer: Its kinase still bound, per cent of control is 85%.

Question: What about the kinase still bound, per cent of control [13] of the same compound?
Answer: The kinase still bound, per cent of control was 87%.

Question: And the kinase still bound, per cent of control [14]?
Answer: Its kinase still bound, per cent of control is 24%.

Question: And the kinase still bound, per cent of control [15]?
Answer: Its kinase still bound, per cent of control is 40%.

Question: And the kinase still bound, per cent of control [16]?
Answer: Its kinase still bound, per cent of control is 81%.

Question: And the kinase still bound, per cent of control [17]?
Answer: The kinase still bound, per cent of control was 100%.

Question: What about the kinase still bound, per cent of control [18] of the same compound?
Answer: Its kinase still bound, per cent of control is 87%.

Question: What about the kinase still bound, per cent of control [19] of the same compound?
Answer: Its kinase still bound, per cent of control is 100%.

Question: And the kinase still bound, per cent of control [20]?
Answer: Its kinase still bound, per cent of control is 60%.

Question: And the kinase still bound, per cent of control [21]?
Answer: Its kinase still bound, per cent of control is 61%.

Question: And the kinase still bound, per cent of control [22]?
Answer: Its kinase still bound, per cent of control is 89%.

Question: And the kinase still bound, per cent of control [23]?
Answer: The kinase still bound, per cent of control was 100%.

Question: And the kinase still bound, per cent of control [24]?
Answer: Its kinase still bound, per cent of control is 82%.

Question: What about the kinase still bound, per cent of control [25] of the same compound?
Answer: The kinase still bound, per cent of control was 100%.

Question: And the kinase still bound, per cent of control [26]?
Answer: The kinase still bound, per cent of control was 69%.

Question: And the kinase still bound, per cent of control [27]?
Answer: The kinase still bound, per cent of control was 90%.

Question: And the kinase still bound, per cent of control [28]?
Answer: Its kinase still bound, per cent of control is 67%.

Question: What about the kinase still bound, per cent of control [29] of the same compound?
Answer: Its kinase still bound, per cent of control is 93%.

Question: And the kinase still bound, per cent of control [30]?
Answer: The kinase still bound, per cent of control was 80%.

Question: What about the kinase still bound, per cent of control [31] of the same compound?
Answer: The kinase still bound, per cent of control was 97%.

Question: And the kinase still bound, per cent of control [32]?
Answer: The kinase still bound, per cent of control was 62%.

Question: What about the kinase still bound, per cent of control [33] of the same compound?
Answer: The kinase still bound, per cent of control was 91%.

Question: And the kinase still bound, per cent of control [34]?
Answer: Its kinase still bound, per cent of control is 100%.

Question: What about the kinase still bound, per cent of control [35] of the same compound?
Answer: Its kinase still bound, per cent of control is 100%.

Question: And the kinase still bound, per cent of control [36]?
Answer: The kinase still bound, per cent of control was 100%.

Question: And the kinase still bound, per cent of control [37]?
Answer: Its kinase still bound, per cent of control is 82%.

Question: What about the kinase still bound, per cent of control [38] of the same compound?
Answer: Its kinase still bound, per cent of control is 79%.

Question: And the kinase still bound, per cent of control [39]?
Answer: The kinase still bound, per cent of control was 100%.

Question: What about the kinase still bound, per cent of control [40] of the same compound?
Answer: Its kinase still bound, per cent of control is 100%.

Question: And the kinase still bound, per cent of control [41]?
Answer: The kinase still bound, per cent of control was 97%.

Question: And the kinase still bound, per cent of control [42]?
Answer: Its kinase still bound, per cent of control is 83%.
